In patent US6809120B1, “Composition containing propargylamine for enhancing cancer therapy” (University of Saskatchewan Technologies Inc., priority 1998, dated 2004):

Assays:
rat2 cells = assay: In vitro clonogenic cell survival assay, modulation of cisplatinum toxicity in normal cells (RATIO method); type: cell-based, rat; conditions: with cisplatinum
Text: (§1) The protocol detailed below can be used for any normal/tumorigenic cell pair which will attach to plastic. Non-adherent lines (which includes most tumor cells, including NW16; consult references 5-10) require quantitation in soft agar. The present experiments are based on i) rat2 cells, a phenotypically normal, established rat fibroblast line and, ii) a tumorigenic derivative thereof, NW16 cells, which are rat2 cells transformed by a Fujinami sarcoma virus oncogene (see work of A. Pawson and P130^gag-fps). Rat2 and NW16 cells are maintained in a sub-confluent randomly-proliferating state in Dulbecco's modified minimal essential media with 10% (vol/vol) calf serum in plates incubated at 37° C. in a humidified CO2 (10%) incubator. All experiments reported rely on clonogenic cell survival assays (see references 4-6). Assays using rat2 (normal cells) were performed as follows: cells are exposed, in 10 cm culture dishes, to various drugs in media plus serum for varying lengths of time; seeding is at varying cell numbers, over log10 ranges, depending upon the degree of killing anticipated. [For the figure presented, incubation was for 72 hours prior to washing and assessment of clonogenic survival]. Both control and the experimental cultures are then gently washed, twice, with phosphate buffered saline, then once more with media minus serum, and then left in media plus serum, undisturbed until macroscopic colonies appear (7-9 days of incubation). The colonies are then fixed and stained with saturated methylene blue in 50% methanol and counted. The number of colonies, evaluated from 2 or more sets of duplicate cultures seeded at initial densities differing by factors of 10, are determined and converted to relative number of colonies, using the 0-hour control value as 1.0. Assays of NW16 cells were similar; however, because these cells are poorly adherent, following drug exposure, the washing procedure is modified, as is the quantitation of survivors step. In the latter case, quantitation requires plating the cells in soft agar (references 5-10).
A simplified presentation of the data, by the RATIO method, is show in FIG. 1. […] Ratios greater than unity indicate that the modulator has conferred a protective response, whereas ratios less than unity indicate an enhanced cell killing.

NW16 cells = assay: In vitro clonogenic cell survival assay in soft agar, modulation of cisplatinum toxicity in tumorigenic cells (RATIO method); type: cell-based, rat; conditions: for enhanced killing of tumor cells in the presence of cisplatinum (result in words): in vitro fibroblast model
Text: as §1, with “5-10). […]” for “5-10).”

[1] = system: normal femoral bone marrow cells (CFU-C/GM); assay: In vivo assessment of anticancer drug modulators: relative cell survival of normal femoral bone marrow cells in P388-bearing mice; conditions: for toxicity of cisplatinum to the marrow cells in the presence of modulator / protection of normal bone marrow cells (result in words): DBA/2J mice with P388, ip; for toxicity of cisplatinum to the marrow cells in the presence of modulator: cisplatinum 0.2 mg plus modulator, 48 h; for protection of normal bone marrow cells (result in words): with cisplatinum 0.2 mg, Histidinol 5 mg/injection or R-2HPA 0.38 ug/injection x5, 48 h after treatment, FIG. 2
Description: (§2) Seven groups of mice were treated and assessed in this model as follows:
(§3) P388 cells (1 million) were injected into the tail vein of 22 female DBA/2J mice (Protocol first developed in reference 6 and 8). The mice were then randomly divided into the above groups and injected (ip) with drugs 96 h later. Doses were cisplatinum 0.2 mg at 0 hour; Histidinol 5 mg/injection and R-2HPA 0.38 ug/injection; administered 5 times at −2, 0, +2, +4, and +6 hours. 48 h after drug treatment, cells from the femurs of the mice were harvested, washed and plated (at log10 dilutions) so as to allow quantitative and specific relative cell survival values to be generated for the responses of normal femoral bone marrow cells (specifically, CFU-C/GM or granulocyte/macrophage precursor cells) and clonogenic P388 leukemia cells (8).

P388 leukemia cells = assay: In vivo assessment of anticancer drug modulators: relative cell survival of clonogenic P388 leukemia cells in femurs of mice; conditions: DBA/2J mice; for increase of cisplatinum toxicity to the leukemia cells in the presence of modulator / enhanced killing by cisplatinum of P388 cells (result in words): ip, 48 h; for increase of cisplatinum toxicity to the leukemia cells in the presence of modulator: cisplatinum 0.2 mg plus modulator; for enhanced killing by cisplatinum of P388 cells (result in words): with cisplatinum 0.2 mg, Histidinol 5 mg/injection or R-2HPA 0.38 ug/injection x5, FIG. 3
Description: as §2, §3

Compound | protection of normal fibroblasts from cisplatinum (result in words) (rat2 cells; FIG. 1) | enhanced killing of tumor cells in the presence of cisplatinum (result in words) (NW16 cells) | toxicity of cisplatinum to the marrow cells in the presence of modulator [1] | protection of normal bone marrow cells (result in words) [1] | increase of cisplatinum toxicity to the leukemia cells in the presence of modulator (P388 leukemia cells) | enhanced killing by cisplatinum of P388 cells (result in words) (P388 leukemia cells) | also measured
C#CCN(C)[C@@H](C)CCCCC [S-2HMP] | inactive | – | – | – | – | – | –
R-deprenyl [reference compound] | less efficacious | – | – | – | – | – | –
C#CCN(C)[C@H](C)CCCCC [R-2HMP, R-2-heptyl-methylpropargylamine] | protect normal cells | enhance the killing of tumor cells | – | – | – | – | concentration at which the effect reverses to a protective effect in tumorigenic cells (NW16 cells; NW16 tumorigenic cells, with cisplatinum, FIG. 1): ≥ 10^−9 M
N[C@H](CO)Cc1c[nH]cn1 [histidinol, L-histidinol, reference compound] | exhibits similar properties | – | essentially eliminated | effective at protecting normal bone marrow cells | ~1000 fold | enhanced the killing by cisplatinum of P388 cells | –
N.N.[Cl][Pt][Cl] [cisplatinum] | – | – | – | – | – | – | effectiveness at killing normal marrow cells relative to intrafemoral leukemia cells, drug used alone ([1]; cisplatinum 0.2 mg ip alone, DBA/2J mice with P388, 48 h): about 100 times
C#CCN[C@H](C)CCCCC [R-2HPA, R-2-heptyl-propargylamine] | protect normal cells | enhance the killing of tumor cells | essentially eliminated | effective at protecting normal bone marrow cells | ~1000 fold | enhanced the killing by cisplatinum of P388 cells | protection of normal fibroblasts from cisplatinum (result in words) (rat2 cells; FIG. 1, listed as R-2BPA): more potent; therapeutic index between protection of healthy normal cells and killing of cancerous cells (P388 leukemia cells; R-2HPA 0.38 ug dose with cisplatinum): about 50,000
